Experiments:
Assay in all cases: relative viability (nuclei count vs DMSO), 5 days (fraction); higher = more cells survive
DM3189 + Alpelisib = compound: C1CN(CCN1)C2=CC=C(C=C2)C3=CN4C(=C(C=N4)C5=CC=NC6=CC=CC=C56)N=C3 [DM3189] + Cc1nc(NC(=O)N2CCC[C@H]2C(N)=O)sc1-c1ccnc(C(C)(C)C(F)(F)F)c1 [Alpelisib] (partner 2 µM)
Procedure, shortened: (§1)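 The day after seeding in 1536-well plates, lung cancer cell lines were treated by pin tool with a single drug, or with a fixed anchor-drug dose together with five library-drug doses (not always all listed) in √10 steps. After 5 days, a combined fix-and-stain solution (final 0.05% Triton X-100, 1% formaldehyde, 1 ug/ml Hoechst) was added. Nuclei counted on 4× images gave relative viability as treated counts over vehicle counts, reported as the median of duplicate plates.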

DM3189 + Dasatinib = compound: C1CN(CCN1)C2=CC=C(C=C2)C3=CN4C(=C(C=N4)C5=CC=NC6=CC=CC=C56)N=C3 [DM3189] + Cc1nc(Nc2ncc(C(=O)Nc3c(C)cccc3Cl)s2)cc(N2CCN(CCO)CC2)n1 [Dasatinib] (partner 0.075 µM)
Procedure, shortened: as §1

DM3189 + Phenformin = compound: C1CN(CCN1)C2=CC=C(C=C2)C3=CN4C(=C(C=N4)C5=CC=NC6=CC=CC=C56)N=C3 [DM3189] + N=C(N)NC(=N)NCCc1ccccc1 [Phenformin] (partner 250 µM)
Procedure, shortened: as §1

DM3189 + Lapatinib = compound: C1CN(CCN1)C2=CC=C(C=C2)C3=CN4C(=C(C=N4)C5=CC=NC6=CC=CC=C56)N=C3 [DM3189] + CS(=O)(=O)CCNCc1ccc(-c2ccc3ncnc(Nc4ccc(OCc5cccc(F)c5)c(Cl)c4)c3c2)o1 [Lapatinib] (partner 2 µM)
Procedure, shortened: as §1

DM3189 + AZD7762 = compound: C1CN(CCN1)C2=CC=C(C=C2)C3=CN4C(=C(C=N4)C5=CC=NC6=CC=CC=C56)N=C3 [DM3189] + NC(=O)Nc1cc(-c2cccc(F)c2)sc1C(=O)N[C@H]1CCCNC1 [AZD7762] (partner 0.2 µM)
Procedure, shortened: as §1

| Cell Line | relative viability (DM3189 + Alpelisib; first compound 0.08 µM) | relative viability (DM3189 + Alpelisib; first compound 0.253 µM) | relative viability (DM3189 + Alpelisib; first compound 0.8 µM) | relative viability (DM3189 + Alpelisib; first compound 2.53 µM) | relative viability (DM3189 + Dasatinib; first compound 0.08 µM) | relative viability (DM3189 + Dasatinib; first compound 0.253 µM) | relative viability (DM3189 + Dasatinib; first compound 0.8 µM) | relative viability (DM3189 + Dasatinib; first compound 2.53 µM) | relative viability (DM3189 + Phenformin; first compound 0.08 µM) | relative viability (DM3189 + Phenformin; first compound 0.253 µM) | relative viability (DM3189 + Phenformin; first compound 0.8 µM) | relative viability (DM3189 + Phenformin; first compound 2.53 µM) | relative viability (DM3189 + Lapatinib; first compound 0.08 µM) | relative viability (DM3189 + Lapatinib; first compound 0.253 µM) | relative viability (DM3189 + Lapatinib; first compound 0.8 µM) | relative viability (DM3189 + Lapatinib; first compound 2.53 µM) | relative viability (DM3189 + AZD7762; first compound 0.08 µM) | relative viability (DM3189 + AZD7762; first compound 0.253 µM) | relative viability (DM3189 + AZD7762; first compound 0.8 µM) | relative viability (DM3189 + AZD7762; first compound 2.53 µM) |
| --- | --- | --- | --- | --- | --- | --- | --- | --- | --- | --- | --- | --- | --- | --- | --- | --- | --- | --- | --- | --- |
| NCI-H1437 | 0.837 | 0.931 | 0.855 | 0.905 | 0.434 | 0.395 | 0.384 | 0.385 | 0.363 | 0.325 | 0.308 | 0.323 | 0.793 | 0.767 | 0.765 | 0.852 | 1.14 | 1.15 | 0.969 | 1 |
| NCI-H1651 | 1.23 | 0.986 | 0.924 | 0.797 | 0.386 | 0.571 | 0.58 | 0.462 | 0.45 | 0.339 | 0.335 | 0.272 | 1.08 | 0.852 | 0.826 | 0.984 | 0.536 | 0.457 | 0.443 | 0.444 |
| NCI-H1666 | 1.04 | 1.17 | 1.07 | 0.793 | 0.884 | 0.862 | 0.925 | 0.715 | 0.629 | 0.545 | 0.549 | 0.592 | 0.789 | 0.736 | 0.51 | 0.712 | 1.11 | 0.812 | 0.878 | 0.941 |
| NCI-H1734 | 0.677 | 0.706 | 0.635 | 0.661 | 0.476 | 0.46 | 0.499 | 0.414 | 0.344 | 0.381 | 0.37 | 0.332 | 1.07 | 0.987 | 0.961 | 0.939 | 0.6 | 0.573 | 0.511 | 0.383 |
| NCI-H1755 | 0.848 | 0.877 | 0.815 | 0.926 | 0.429 | 0.401 | 0.388 | 0.411 | 0.698 | 0.589 | 0.511 | 0.566 | 1.07 | 0.937 | 0.811 | 0.936 | 0.482 | 0.455 | 0.615 | 0.372 |
| NCI-H1792 | 0.545 | 0.682 | 0.624 | 0.401 | 0.547 | 0.899 | 0.716 | 0.927 | 0.275 | 0.267 |  | 0.458 | 0.973 | 0.919 | 0.674 | 0.431 | 0.796 | 0.65 | 0.593 | 0.616 |
| NCI-H1793 | 0.758 | 0.877 | 0.982 | 1.16 | 0.423 | 0.368 | 0.371 | 0.361 | 0.397 | 0.412 | 0.415 | 0.344 | 0.653 | 0.773 | 1.01 | 0.711 | 0.524 | 0.519 | 0.273 | 0.347 |
| NCI-H1915 | 1.09 | 0.973 | 0.898 | 1.04 | 0.46 | 0.317 | 0.289 | 0.286 | 0.392 | 0.361 | 0.355 | 0.301 | 1 | 0.867 | 0.705 | 0.737 | 0.708 | 0.639 | 0.521 | 0.637 |
| NCI-H1944 | 0.884 | 0.817 |  | 0.806 | 0.232 | 0.217 |  | 0.219 | 0.237 | 0.192 |  | 0.192 | 0.884 | 0.765 |  | 0.803 | 0.547 | 0.55 | 0.576 | 0.446 |
| NCI-H1975 | 0.869 | 0.718 | 0.658 | 0.342 | 0.421 | 0.357 | 0.314 | 0.332 | 0.455 | 0.38 | 0.4 | 0.329 | 1.15 | 0.952 | 0.725 | 0.764 | 0.757 | 0.682 | 0.522 | 0.625 |
| NCI-H1993 |  | 0.671 | 0.641 | 0.7 | 0.657 | 0.552 | 0.505 | 0.504 | 0.473 | 0.481 | 0.527 | 0.566 |  | 0.533 | 0.722 | 0.746 | 0.824 | 0.776 | 0.653 | 0.643 |
| NCI-H2085 | 0.968 | 0.962 | 0.976 | 0.893 | 0.28 | 0.274 | 0.318 | 0.28 | 0.722 | 0.72 | 0.633 | 0.75 | 0.806 | 0.77 | 0.765 | 0.848 | 0.994 | 1.06 | 0.965 | 1.03 |
| NCI-H2087 | 1.31 | 1.07 | 1.01 | 1.03 | 0.97 | 0.77 | 0.784 | 0.768 | 0.457 | 0.495 | 0.437 | 0.418 | 1.27 | 0.871 | 0.846 | 1.06 | 1.42 | 1.23 | 1.38 | 1.1 |
| NCI-H2126 | 0.838 | 0.745 | 0.763 | 0.805 | 0.742 | 0.568 | 0.446 | 0.503 | 0.576 | 0.529 | 0.483 | 0.522 | 0.869 | 0.775 | 0.673 | 0.732 | 1.05 | 1.07 | 0.968 | 1.01 |
| NCI-H2170 | 0.96 | 0.854 | 0.734 | 0.641 | 0.718 | 0.466 | 0.591 | 0.515 | 0.435 | 0.367 | 0.361 | 0.397 | 0.277 | 0.256 | 0.256 | 0.268 | 0.933 | 0.884 | 0.875 | 0.652 |
| NCI-H2347 | 0.969 | 1 | 0.989 | 1.14 | 0.261 | 0.384 | 0.341 | 0.284 | 0.399 | 0.45 | 0.53 | 0.434 | 1.09 | 0.866 | 0.703 | 0.97 | 0.726 | 0.779 | 0.723 | 0.733 |
| NCI-H2405 | 0.527 | 0.709 | 0.58 | 0.677 | 0.215 | 0.204 | 0.201 | 0.214 | 0.384 | 0.351 | 0.416 | 0.411 | 1.14 | 1.01 | 0.979 | 0.958 | 0.727 | 0.665 | 0.645 | 0.704 |
| NCI-H3122 | 0.656 | 0.74 | 0.701 | 0.739 | 0.853 | 0.639 | 0.757 | 0.708 | 0.405 | 0.334 | 0.355 | 0.333 | 0.976 | 1.02 | 0.911 | 0.878 | 0.978 | 0.964 | 0.912 | 0.816 |
| PC-3 [JPC-3] | 1.08 | 1.08 | 1.02 | 1.23 | 1.12 | 1.07 | 1.16 | 0.966 | 0.475 | 0.467 | 0.471 | 0.467 | 0.436 | 0.456 | 0.431 | 0.439 | 0.957 | 0.884 | 0.814 | 0.791 |
| PC-14 | 0.983 | 0.996 | 0.768 | 1.1 | 0.295 | 0.239 | 0.159 | 0.16 | 0.817 | 0.527 | 0.435 | 0.487 | 0.319 | 0.284 | 0.34 | 0.377 | 0.569 | 0.249 | 0.263 | 0.26 |
| RERF-LC-KJ | 0.932 | 0.829 | 0.895 | 0.937 | 1.03 | 0.891 | 0.744 | 0.943 | 0.451 | 0.4 | 0.407 | 0.426 | 0.965 | 0.954 | 0.843 | 0.854 | 1.51 | 1.11 | 1 | 0.964 |
